Test results reported in US20070099929A1, “Substituted thiophenes” (AiCuris GmbH & Co. KG, priority 2003, published 2007).

Test system: HCV replicon HuH5-2
Experiment: Cellular HCV-RNA replication assay (replicon system), luciferase reporter, with Alamar Blue cytotoxicity test
Type: cell-based, hepatitis C virus
Conditions: for SI (selectivity index) = CC50/EC50: CC50 from Alamar Blue fluorescence, EC50 from luciferase activity, HuH5-2 cells; for EC50: Hepatitis C virus, Huh-5-2, HuH5-2 replicon cells, substance concentration with which the luciferase activity decreases by 50% compared with the untreated replicon control, incubation 4-5 days
Description: 1. Measurement of the Activity of Substances in a Cellular HCV-RNA Replication Assay (“Replicon System”)
Hepatitis C cannot as of yet be replicated reproducibly with high titres in cell culture. The activity of substances is therefore detected in the so-called replicon system. This comprises parts of the HCV genome or complete HCV genomes which are transferred into cell lines (here HuH-7 cells) of human origin. It is possible by insertion of a selection marker to obtain stable cell lines which, under selection pressure, replicate genomic or subgenomic RNA of HCV [Lohmann et al., Science 285, 110-113 (1999); Blight et al., Science 290, 1972-1974 (2000)]. The HuH5-2 cells used here harbour a selectable, luciferase-carrying, cell culture-adapted replicon as described in EP 1 043 399. The cells are cultured in Dulbecco's modified […] medium (DMEM) with 10% fetal calf serum (FCS), 1% Pen/Strep, 1% NEAA, 1% L-glutamine and 250 μg/ml Geneticin (G418). To carry out the assays described below, the cells are initially trypsinized and resuspended with the DMEM medium described above without G418. Depending on the assay, the cells are seeded in 24-well or 384-well plates. Depending on the reading or assay method used, transparent or white assay plates coated for cell culture are used.
The test compounds are made up as 50 mM stock solution in DMSO. To determine the EC50 values, the substances subsequently undergo a serial two-fold dilution in DMEM. The dilutions are transferred as doublets to the cell culture plates. The trypsinized cells which have been resuspended in medium are then added. The final concentration of the test substances in the cell culture wells is for example 300 μM to 0.0001 μM. Interferon-alpha serves as reference substance in concentrations of 60 IU/ml to 1 IU/ml. Antimycin-alpha serves as cytotoxicity control in concentrations of 2 μM to 0.03,M. Untreated cells serve as reference. The plates are then incubated at 37° C. under 5% CO2 for 4-5 days. The various measurements and the quantification of the HCV replicon RNA then take place.
Alamar Blue is a water-soluble redox indicator which is reduced as a function of the metabolic activity of the cells to be investigated. The Alamar Blue test is used as quantitative cytotoxicity assay. For this purpose, the cells are seeded with the appropriate test substances (see above) in white 384-well cell culture plates and incubated correspondingly at 37° C. under 5% CO2 for 4 days. 4 to 6 hours before the actual measurement, 5 μl of Alamar Blue are added per well. The fluorescence is then measured at an […]. If this test is to be followed by chemiluminescence measurement (see below) on the same plate, the dye solution is aspirated off from the cells and the latter are subsequently washed once with PBS. The PBS is likewise aspirated off again from the cells.
A reporter gene is introduced into the HCV replicon HuH5-2, in this case the gene for the luciferase enzyme of Photinus pyralis. After the addition of the luciferase reagent (20 mM Tris/HCl, 20 mM tricine, 2.67 mM MgSO4, 0.1 mM EDTA, 33.3 mM DTT, 0.27 mM coenzyme A, 0.47 mM luciferin, 0.53 mM ATP, pH 7.8) to the cells, the chemiluminescence is measured in a luminometer. Normally, the photons are measured in a period of from 10 sec to 60 sec.
The following data can be determined from the assay plates: • CC50=substance concentration in μM with which the Alamar Blue fluorescence decreases by 50% compared with the untreated control; • EC50=substance concentration with which the luciferase activity decreases by 50% compared with the untreated replicon control; • SI (selectivity index)=CC50/EC50. […]

Row | Structure (SMILES) | SI (selectivity index) = CC50/EC50 | EC50 [nM]
1 | CC(C)N(c1sc(-c2ccc(F)cc2)cc1C(=O)O)C(=O)[C@H]1CC[C@H](C)CC1 [Example 19, 5-(4-Fluorophenyl)-2-{isopropyl[(trans-4-methylcyclohexyl)carbonyl]amino}thiophene-3-carboxylic acid] | >100 | 400
2 | CC(C)N(c1sc(-c2ccccc2)cc1C(=O)O)C(=O)[C@H]1CC[C@H](C)CC1 [Example 1, 2-[Isopropyl-(trans-4-methylcyclohexanecarbonyl)amino]-5-phenylthiophene-3-carboxylic acid] | >50 | 1000
3 | CC(C)N(C(=O)[C@@H]1CC[C@@H](C)C[C@@H]1O)c1sc(-c2ccccc2)cc1C(=O)O (single isomer, unassigned) [Example 54] | >277 | 180
4 | CC(C)N(c1sc(C2CCN(S(C)(=O)=O)CC2)cc1C(=O)O)C(=O)[C@H]1CC[C@H](C)CC1 [Example 35, 2-{Isopropyl[(trans-4-methylcyclohexyl)carbonyl]amino}-5-[1-(methylsulfonyl)piperidin-4-yl]thiophene-3-carboxylic acid] | >18 | 2800
5 | CC(C)N(c1sc(-c2cccnc2)cc1C(=O)O)C(=O)[C@H]1CC[C@H](C)CC1 [Example 30] | >38 | 1300
6 | COCC(C)N(C(=O)C1CCC(C)CC1)c1sc(-c2ccccc2)cc1C(=O)O (centres unmarked) [Example 49] | >63 | 800
7 | C[C@H]1CC[C@H](C(=O)N(c2sc(-c3ccccc3)cc2C(=O)O)C2CCOCC2)CC1 [Example 42, 2-[[(trans-4-Methylcyclohexyl)carbonyl](tetrahydro-2H-pyran-4-yl)amino]-5-phenylthiophene-3-carboxylic acid] | >100 | 500
